In US20250389728A1, “NOVEL CLASS OF TRIOXANE-BASED MS-CLEAVABLE CROSS-LINKERS TO ADVANCE PROTEIN-PROTEIN INTERACTION STUDIES USING CROSS-LINKING MASS SPECTROMETRY” (The Regents of the University of California, priority 2024, published 2025):

Legend:
[1] = target: BSA (Bos taurus, UniProt P02769); experiment: TSTO cross-linking of BSA, LC-MSn
Procedure: The reaction was carried out for 1 h at RT, followed by quenching with ammonium bicarbonate. […] Cross-linked proteins were then digested in 8M urea buffer using LysC for 4 h at 37° C., followed by trypsin digestion at 37° C. overnight after diluting urea concentration to <1.5 M. The resulting peptide mixtures were extracted and desalted using C18 tips (Agilent) prior to MS analyses.
(§1) LC-MS^n analysis. LC-MS^n analysis of cross-linked peptides was performed using an UltiMate 3000 UPLC (Thermo Fisher Scientific) liquid chromatograph coupled on-line to an Orbitrap Fusion Lumos mass spectrometer (Thermo Fisher Scientific). Peptides were separated by reverse-phase on a 50 cm×75 μm I.D. Acclaim® PepMap RSLC column using gradients of 4% to 25% acetonitrile at a flow rate of 300 nL/min (solvent A: 100% H2O, 0.1% formic acid; solvent B: 100% acetonitrile, 0.1% formic acid) prior to MS^n analysis. For each MS^n acquisition, duty cycles consisted of one full Fourier transform scan mass spectrum (375-1500 m/z, resolution of 60,000 at m/z 400) followed by data-dependent MS^2 and MS^3 acquired at top speed in the Orbitrap and linear ion trap, respectively. Ions detected in MS^1 with 4+ or greater charge were selected and subjected to CID fragmentation (NCE 23%) in MS^2 and resulting ions were detected in the Orbitrap (resolution 30,000). Ions observed in MS^2 spectra with charge 2+ or greater were selected and fragmented in MS^3 using CID (NCE 35%) and detected in the linear ion trap in ‘Rapid’ mode. Ions selected for MS^3 were either based on abundance (top 4 or 5 most intense ions in MS^2) or targeted based on doublets with mass difference pairs (Δ=18.02 Da) corresponding to cross-linker remnant moiety water loss. For 26S proteasome cross-links, each acquisition was 200 min and ion selection for MS^3 was based on top intensity. For SEC-separated F24 fractions, the entire HpHt fraction was injected; for F26 fractions half of the HpHt fraction was injected for each LC-MS^n analysis. Each acquisition was 120 or 150 min, and both top intensity and mass difference-targeted methods were used for selecting ions for MS^3 analysis.
Spectrometric data were extracted from .raw files using PAVA. Extracted MS^3 spectra were subjected to protein database searching via Batch-Tag within a developmental version of Protein Prospector (v. 6.3.5, University of California, San Francisco) against a randomly concatenated SwissProt database consisting of 20,418 human proteins and their corresponding decoys. Mass tolerances for parent ions and fragment ions were set as ±15 ppm and 0.6 Da, respectively. Trypsin was set as the enzyme with three maximum missed cleavages allowed. Cysteine carbamidomethylation was selected as a constant modification, while protein N-terminal acetylation, methionine oxidation, and N-terminal conversion of glutamine to pyroglutamic acid were selected as variable modifications.

[2] = tested on: human 26S proteasomes; experiment: TSTO cross-linking of affinity-purified 26S proteasomes, LC-MSn
Procedure: Cross-linked proteins were then digested in 8M urea buffer using LysC for 4 h at 37° C., followed by trypsin digestion at 37° C. overnight after diluting urea concentration to <1.5 M. The resulting peptide mixtures were extracted and desalted using C18 tips (Agilent) prior to MS analyses.
as §1, with “MS^3 analysis. […]” for “MS^3 analysis.”

BSA, sequence (P02769 25-607): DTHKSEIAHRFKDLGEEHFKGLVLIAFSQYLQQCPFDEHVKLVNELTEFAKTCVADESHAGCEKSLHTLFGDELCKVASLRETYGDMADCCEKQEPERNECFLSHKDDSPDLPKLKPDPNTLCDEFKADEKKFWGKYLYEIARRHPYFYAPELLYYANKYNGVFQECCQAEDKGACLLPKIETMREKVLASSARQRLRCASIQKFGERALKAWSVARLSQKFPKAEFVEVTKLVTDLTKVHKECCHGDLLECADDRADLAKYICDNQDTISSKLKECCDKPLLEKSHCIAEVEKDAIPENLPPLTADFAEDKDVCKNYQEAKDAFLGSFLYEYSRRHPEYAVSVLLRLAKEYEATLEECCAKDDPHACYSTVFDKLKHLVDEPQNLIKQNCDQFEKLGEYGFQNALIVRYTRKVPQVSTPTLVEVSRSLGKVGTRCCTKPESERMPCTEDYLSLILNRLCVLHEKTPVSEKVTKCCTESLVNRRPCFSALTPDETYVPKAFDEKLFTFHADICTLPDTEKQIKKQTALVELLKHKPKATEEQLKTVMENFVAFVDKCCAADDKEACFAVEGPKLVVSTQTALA

O=C(CCCC1OC(CCCC(=O)ON2C(=O)CCC2=O)OC(CCCC(=O)ON2C(=O)CCC2=O)O1)ON1C(=O)CCC1=O (centres unmarked) [TSTO, Tris(2,5-dioxopyrrolidin-1-yl) 4,4′,4″-(1,3,5-trioxane-2,4,6-triyl)tributanoate]
redundant cross-linked spectra matches (CSMs) ([1]; 1 mM TSTO, pH 7.4 PBS, 1 h RT): 823 | unique CSMs ([1]; 1 mM TSTO, pH 7.4 PBS, 1 h RT): 167 | tri-links share of total unique CSMs ([1]; 45/167): ~27% | overall mapped distance median (Cα-Cα) ([1]; mapped to PDB:4F5S): 21.1 Å | satisfaction rate of cross-links ≤35 Å ([1]; mapped to PDB:4F5S): 90% | share of unique CSMs that were tri-links ([2]; 0.75 mM TSTO on-bead): 41.3% | total unique CSMs ([2]; 0.75 mM TSTO on-bead, PBS pH 7.5, 1 h): 808 | satisfaction rates (≤35 Å) of mapped tri-links and bi-links ([2]; mapped to PDB: 7QY7): ~90%
